Measurements published in ChEMBL document CHEMBL1122523, “2-[[[2-(2,6-Dimethoxyphenoxy)ethyl]amino]-methyl] -1,4-benzoxathian: a new antagonist with high potency and selectivity toward alpha 1-adrenoreceptors” (J Med Chem, 1984).

How the values were obtained:
[1] = target: T1, Adrenergic receptor alpha-2 (Rattus norvegicus, UniProt P22086+P19328+P22909); experiment: Alpha-2 adrenergic receptor antagonist activity against agonist (clonidine) in isolated rat vas deferens; type: functional, tissue-based
T1 sequence (P22086 whole entry): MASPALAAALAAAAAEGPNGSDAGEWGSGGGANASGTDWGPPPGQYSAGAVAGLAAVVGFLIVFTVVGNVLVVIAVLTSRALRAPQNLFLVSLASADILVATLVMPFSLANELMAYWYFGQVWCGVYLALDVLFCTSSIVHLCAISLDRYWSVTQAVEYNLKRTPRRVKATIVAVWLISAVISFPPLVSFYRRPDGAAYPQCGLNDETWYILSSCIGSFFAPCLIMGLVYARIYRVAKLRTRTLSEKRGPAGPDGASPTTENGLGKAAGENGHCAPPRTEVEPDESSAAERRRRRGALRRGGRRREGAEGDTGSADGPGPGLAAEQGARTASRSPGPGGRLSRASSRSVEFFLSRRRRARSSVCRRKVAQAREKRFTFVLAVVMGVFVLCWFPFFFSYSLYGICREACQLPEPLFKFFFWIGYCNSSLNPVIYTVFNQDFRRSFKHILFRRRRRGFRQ
T1 sequence (P19328 whole entry): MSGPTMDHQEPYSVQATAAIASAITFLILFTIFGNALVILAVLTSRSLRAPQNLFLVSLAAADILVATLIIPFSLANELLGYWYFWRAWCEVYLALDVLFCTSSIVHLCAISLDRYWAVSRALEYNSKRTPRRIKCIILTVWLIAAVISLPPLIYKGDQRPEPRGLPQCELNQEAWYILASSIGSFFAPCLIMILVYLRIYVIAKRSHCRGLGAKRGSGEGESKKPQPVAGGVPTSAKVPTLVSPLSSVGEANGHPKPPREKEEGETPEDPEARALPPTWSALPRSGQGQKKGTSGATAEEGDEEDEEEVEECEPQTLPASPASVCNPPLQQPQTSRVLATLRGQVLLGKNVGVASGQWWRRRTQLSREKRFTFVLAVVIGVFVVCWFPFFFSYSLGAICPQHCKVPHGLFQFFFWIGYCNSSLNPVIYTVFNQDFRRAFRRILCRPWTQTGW
T1 sequence (P22909 whole entry): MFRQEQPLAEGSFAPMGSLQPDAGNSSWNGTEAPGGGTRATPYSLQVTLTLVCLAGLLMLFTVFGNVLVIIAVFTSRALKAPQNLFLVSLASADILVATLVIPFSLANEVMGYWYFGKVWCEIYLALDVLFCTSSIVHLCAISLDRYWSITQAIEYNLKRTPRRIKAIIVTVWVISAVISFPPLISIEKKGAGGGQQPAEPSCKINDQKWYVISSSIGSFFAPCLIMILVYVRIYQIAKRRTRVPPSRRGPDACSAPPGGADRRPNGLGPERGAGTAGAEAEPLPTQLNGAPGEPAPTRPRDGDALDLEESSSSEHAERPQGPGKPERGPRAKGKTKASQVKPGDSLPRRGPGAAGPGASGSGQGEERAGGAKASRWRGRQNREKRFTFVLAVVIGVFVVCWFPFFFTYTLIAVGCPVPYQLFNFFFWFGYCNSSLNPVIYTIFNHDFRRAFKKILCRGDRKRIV

[2] = target: T2, Adrenergic receptor alpha-1 (Rattus norvegicus, UniProt P15823+P23944+P43140); experiment: Alpha-1 adrenergic receptor antagonist activity against agonist (norepinephrine) in isolated rat vas deferens; type: functional, tissue-based
T2 sequence (P15823 whole entry): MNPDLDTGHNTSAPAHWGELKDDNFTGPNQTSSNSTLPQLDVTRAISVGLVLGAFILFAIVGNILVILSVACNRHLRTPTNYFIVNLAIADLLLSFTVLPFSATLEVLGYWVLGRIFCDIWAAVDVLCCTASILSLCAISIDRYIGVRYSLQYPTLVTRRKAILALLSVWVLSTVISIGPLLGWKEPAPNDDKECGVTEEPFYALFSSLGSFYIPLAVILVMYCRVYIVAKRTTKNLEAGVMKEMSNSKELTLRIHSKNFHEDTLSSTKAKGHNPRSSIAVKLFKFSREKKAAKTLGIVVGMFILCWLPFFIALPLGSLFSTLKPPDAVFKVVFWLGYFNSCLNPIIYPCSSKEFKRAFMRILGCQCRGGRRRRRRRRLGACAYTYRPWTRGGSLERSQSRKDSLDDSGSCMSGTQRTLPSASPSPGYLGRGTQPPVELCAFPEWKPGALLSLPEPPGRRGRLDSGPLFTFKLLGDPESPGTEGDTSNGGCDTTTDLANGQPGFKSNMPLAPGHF
T2 sequence (P23944 whole entry): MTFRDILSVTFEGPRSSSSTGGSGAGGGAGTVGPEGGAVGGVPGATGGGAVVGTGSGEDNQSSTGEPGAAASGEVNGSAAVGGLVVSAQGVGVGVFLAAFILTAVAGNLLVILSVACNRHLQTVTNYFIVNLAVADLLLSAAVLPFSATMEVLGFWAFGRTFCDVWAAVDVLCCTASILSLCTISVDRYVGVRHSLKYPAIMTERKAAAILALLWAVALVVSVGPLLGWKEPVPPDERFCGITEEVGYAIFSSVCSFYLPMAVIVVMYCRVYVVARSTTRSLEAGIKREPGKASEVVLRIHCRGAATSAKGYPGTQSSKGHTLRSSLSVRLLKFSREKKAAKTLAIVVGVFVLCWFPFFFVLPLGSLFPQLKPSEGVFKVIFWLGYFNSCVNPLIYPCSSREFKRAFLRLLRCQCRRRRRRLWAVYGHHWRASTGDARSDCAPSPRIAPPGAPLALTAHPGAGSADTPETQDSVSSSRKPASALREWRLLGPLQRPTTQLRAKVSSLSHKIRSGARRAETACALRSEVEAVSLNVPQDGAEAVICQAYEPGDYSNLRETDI
T2 sequence (P43140 whole entry): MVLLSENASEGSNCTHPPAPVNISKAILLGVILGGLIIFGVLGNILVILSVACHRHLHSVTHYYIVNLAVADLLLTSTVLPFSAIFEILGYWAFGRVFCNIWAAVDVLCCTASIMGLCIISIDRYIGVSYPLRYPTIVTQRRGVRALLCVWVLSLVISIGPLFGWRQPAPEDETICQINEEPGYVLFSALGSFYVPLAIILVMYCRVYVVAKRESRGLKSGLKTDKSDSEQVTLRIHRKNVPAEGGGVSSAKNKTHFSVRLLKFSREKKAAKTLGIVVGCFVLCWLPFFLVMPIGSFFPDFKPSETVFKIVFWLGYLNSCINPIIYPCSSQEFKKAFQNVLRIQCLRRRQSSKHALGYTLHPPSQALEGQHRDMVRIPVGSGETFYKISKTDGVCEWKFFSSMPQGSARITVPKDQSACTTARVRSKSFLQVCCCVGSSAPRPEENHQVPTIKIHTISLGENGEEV

| Structure (SMILES) | pA2 [1] | pA2 [2] |
| --- | --- | --- |
| COc1cccc(OC)c1OCCNCC1COc2ccccc2O1.Cl (centres undefined) [2- (2,6-DIMETHOXYPHENOXYETHYL)AMINOMETHYL-1,4-BENZODIOXANE HYDROCHLORIDE (WB 4101)] | 6.29 | 8.83 |
| COc1cccc(OC)c1OCCNCC1CSc2ccccc2O1.Cl (centres undefined) [BENOXATHIAN HYDROCHLORIDE] | 6.26 | 9.26 |
